Measured values: US20050238730A1, “Compositions comprising an ethanolamine derivative and organic metal salts” (priority 2001, published 2005)

System: human dermal fibroblasts
Assay: Fibroblasts proliferation after 10 days of culture (cells trypsinized and counted with a Coulter counter)
Format: cell-based
Details: 2% FCS
Protocol: Fibroblasts were seeded in 24 multiwell plates at 25,000 cells per well in 1 ml of DMEM supplemented with fetal calf serum (FCS) and antibiotics. Cultures were incubated 24 hours at 37° C. to allow cell attachment and spreading. Supernatants were then eliminated and replaced with fresh medium supplemented with 2% of FCS and containing the tested product at different concentrations. After 10 days of culture, cells were trypsinized and counted with a Coulter counter.

Molecule	% effect vs control (DMAE 10^-4 M alone) [%]	% effect vs control (DMAE 10^-5 M alone) [%]	% effect vs control (metal salt alone 5 ng/ml) [%]	Mean of cell/ml (metal salt alone 5 ng/ml) [cell/ml]	% effect vs control (metal salt alone 50 ng/ml) [%]	Mean of cell/ml (metal salt alone 50 ng/ml) [cell/ml]	% effect vs control (metal salt alone 500 ng/ml) [%]	Mean of cell/ml (metal salt alone 500 ng/ml) [cell/ml]
CN(C)CCO [DMAE, dimethylaminoethanol]	31	14	–	–	–	–	–	–
N[C@@H](CC(=O)[O-])C(=O)[O-].[Mg+2] [Mg aspartate, magnesium aspartate]	–	–	2	78073 ± 4231	3	79400 ± 1674	21	92753 ± 2771
zinc gluconate [Zn gluconate]	–	–	0	–	3	–	11	–
